# Data taken from patent publication US6265551A, “Form of dipeptidylpeptidase IV (CD26) found in human serum, antibodies thereto, and uses thereof” (Dana-Farber Cancer Institute, Inc., priority 1996, dated 2001).
# Where a SMILES comes first, the peptide text is derived from it. The star is where a group is joined. pNA = O=[N+]([O-])c1ccc(N*)cc1
# What was measured:
# [1] = test system: serum DPPIV (soluble 175 kDa form of DPPIV/CD26, DPPT-L) purified from normal human serum; experiment: DPPIV enzyme activity: Gly-Pro-pNA hydrolysis, Michaelis-Menten kinetics and inhibition; assay type: biochemical
# Description: The DPPIV enzyme activities of the rsCD26 and serum DPPIV were analyzed by Michaelis-Menten kinetics by assessing kinetics of hydrolysis of substrate at different concentrations. […] To further exclude the possibility that we had purified irrelevant aminopeptidases which, working in concert or by sequential hydrolysis, could release the pNA chromophore from substrate, we tested a number of substrates which could be hydrolyzed by non-DPPIV aminopeptidases. One candidate for sequential hydrolysis is aminopeptidase M (3.4.11.2), but no hydrolysis of Ala-pNA, Arg-pNA or Leu-pNA was observed and activity by aminopolypeptidase (3.4.11.14) may be similarly excluded. The substrate succinyl-Gly-Pro-pNA was also not hydrolyzed. The only substrate apart from the dipeptide chromatogen Gly-Pro-pNA which could be hydrolyzed was Val-Ala-pNA, which was cleaved by both the serum DPPIV and rsCD26 (relative to rate of hydrolysis of Gly-Pro-pNA, hydrolysis of Val-Ala-pNA was 0.098 and 0.079, for rsCD26 and serum DPPIV, respectively). Although DPPIV primarily hydrolyses dipeptides with a proline in the penultimate position, it is well documented that alanine in the penultimate position may also render a dipeptide sequence susceptible to cleavage by DPPIV (8). […]
# DPPIV activity: The primary substrate used for determining DPPIV activity in all assays was Gly-Pro-p-nitroanilide (Gly-Pro-pNA; Sigma), which is hydrolyzed by DPPIV to release pNA absorbing strongly at 405 nm. […] Inhibition of the hydrolysis of Gly-Pro-pNA was determined in the presence of the specific DPPIV inhibitor Diprotin A (Bachem, King of Prussia, Pa.). […] The pH optimum was determined substituting phosphate buffer (100 mM, pH4.5-pH9) in place of standard incubation buffer.
# Serum DPPIV: Serum DPPIV was prepared by isolating from 100 ml of pooled normal human male AB serum the fraction of protein precipitated by 50-70% saturated ammonium sulfate. […] The DPPIV activity was eluted by a 0-0.5M NaCl gradient in equilibration buffer and all DPPIV activity was found in the 10 mM-50 mM NaCl eluate (determined by conductance). […]
# [2] = target: recombinant soluble CD26 (rsCD26), full extracellular domain of human T cell membrane CD26/DPPIV, 105 kDa form, from transfected CHO cells (Homo sapiens, UniProt P27487); experiment: as above; settings: U = enzyme cleaving 1 mmol Gly-Pro-pNA/min at pH7.6 and 20° C.
# recombinant soluble CD26 (rsCD26), full extracellular domain of human T cell membrane CD26/DPPIV, 105 kDa form, from transfected CHO cells, sequence (P27487 29-766 limits assumed): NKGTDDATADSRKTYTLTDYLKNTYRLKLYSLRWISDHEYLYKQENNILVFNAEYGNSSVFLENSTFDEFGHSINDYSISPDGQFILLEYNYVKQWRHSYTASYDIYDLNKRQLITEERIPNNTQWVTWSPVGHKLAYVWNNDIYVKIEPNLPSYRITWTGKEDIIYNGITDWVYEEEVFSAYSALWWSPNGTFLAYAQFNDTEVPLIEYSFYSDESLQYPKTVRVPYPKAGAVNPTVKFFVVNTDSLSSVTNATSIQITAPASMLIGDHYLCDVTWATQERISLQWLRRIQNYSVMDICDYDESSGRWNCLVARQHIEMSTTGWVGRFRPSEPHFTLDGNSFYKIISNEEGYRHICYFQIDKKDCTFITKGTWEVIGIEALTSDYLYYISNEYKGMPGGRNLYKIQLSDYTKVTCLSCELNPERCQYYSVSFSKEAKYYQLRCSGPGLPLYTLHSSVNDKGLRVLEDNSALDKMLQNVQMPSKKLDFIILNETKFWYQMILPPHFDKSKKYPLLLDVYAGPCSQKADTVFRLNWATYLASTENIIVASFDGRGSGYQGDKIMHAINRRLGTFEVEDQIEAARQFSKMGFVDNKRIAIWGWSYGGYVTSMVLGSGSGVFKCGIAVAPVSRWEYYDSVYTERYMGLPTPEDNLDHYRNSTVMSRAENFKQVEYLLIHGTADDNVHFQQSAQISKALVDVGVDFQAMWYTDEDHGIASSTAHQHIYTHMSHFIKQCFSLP
# Description: DPPIV activity: The primary substrate used for determining DPPIV activity in all assays was Gly-Pro-p-nitroanilide (Gly-Pro-pNA; Sigma), which is hydrolyzed by DPPIV to release pNA absorbing strongly at 405 nm. Kinetic assays were performed using varying amounts of substrate in order to obtain estimates of the Km and Vmax using standard Michaelis-Menten kinetics. For screening assays of DPPIV activity, 150 ml of substrate was used at 1 mg/ml (2 mM final concentration) in phosphate buffer (pH7.6, 100 mM) in 96 well flat-bottomed microtiter plates together with 10 ml of appropriately diluted sample. For samples obtained after elution from the s-Sepharose column, the pH was raised to pH7.6 by addition of 25 μl of 1M Tris-HCl, pH7.6 to the reaction mixture. One unit (U) of enzyme activity was defined as the amount of enzyme that cleaved 1 mmol of Gly-Pro-pNA/min at pH7.6 and 20° C. […] The pH optimum was determined substituting phosphate buffer (100 mM, pH4.5-pH9) in place of standard incubation buffer.
Structure (SMILES),"Km ([1]; Lineweaver-Burke transformation, substrate at different concentrations) [µM]","Vmax, Gly-Pro-pNA as substrate ([1]; U = enzyme cleaving 1 mmol Gly-Pro-pNA/min at pH7.6 and 20° C.) [U/nmol serum DPPIV]","Vmax, Gly-Pro-pNA as substrate [2] [U/nmol rsCD26]","IC50 ([1]; read-out: IC50 (Diprotin A), inhibition of the hydrolysis of Gly-Pro-pNA) [µM]"
"NCC(=O)N1CCC[C@H]1C(=O)Nc1ccc([N+](=O)[O-])cc1 [Gly-Pro-pNA, Gly-Pro-p-nitroanilide] (H-Gly-Pro-pNA)",280,0.65,1.52,–
CC[C@H](C)[C@H](N)C(=O)N1CCC[C@H]1C(=O)N[C@H](C(=O)O)[C@@H](C)CC [Diprotin A],–,–,–,250
